{"source": "patent US20070128217A1", "about": "(priority 2003, published 2007)", "key": {"[1]": {"tested_on": "antibodies in sera from SARS patients (sera 1a, 1b, 2, 6, 37, 62, London, SARS-yellow, SARS-green)", "format": "binding, human", "parameters": "Binding of serum 6 to linear peptides of protein X1 of SARS-CoV Urbani / Binding of serum 37 to linear peptides of protein X1 of SARS-CoV Urbani / Binding of serum 6 to looped/cyclic peptide (PEPSCAN-ELISA) / Binding of serum 37 to looped/cyclic peptide (PEPSCAN-ELISA) / Binding of serum 37 to looped/cyclic peptides of protein X1 of SARS-CoV Urbani / Binding of serum 6 to linear peptides of protein X2 / Binding of serum 37 to linear peptides of protein X2 / Binding of serum 37 to looped/cyclic peptides of protein X2 of SARS-CoV Urbani / Binding of serum 6 to linear peptides of protein M of SARS-CoV Urbani / Binding of serum 37 to linear peptides of protein M of SARS-CoV Urbani / Binding of serum 6 to looped/cyclic peptides of protein M of SARS-CoV Urbani / Binding of serum 37 to looped/cyclic peptides of protein M of SARS-CoV Urbani / Binding of serum 6 to linear peptides of protein X3 of SARS-CoV Urbani / Binding of serum 37 to linear peptides of protein X3 of SARS-CoV Urbani / Binding of serum 37 to looped/cyclic peptides of protein X3 of SARS-CoV Urbani / Binding of serum 6 to linear peptides of protein X4 of SARS-CoV Urbani / Binding of serum 37 to linear peptides of protein X4 of SARS-CoV Urbani / Binding of serum 37 to looped/cyclic peptides of protein X4 of SARS-CoV Urbani / Binding of serum 6 to linear peptides of protein X5 of SARS-CoV Urbani / Binding of serum 37 to linear peptides of protein X5 of SARS-CoV Urbani / Binding of serum 37 to looped/cyclic peptides of protein X5 of SARS-CoV Urbani / Binding of serum 6 to linear peptides of protein N of SARS-CoV Urbani / Binding of serum 37 to linear peptides of protein N of SARS-CoV Urbani / Binding of serum 6 to linear peptide (PEPSCAN-ELISA) / Binding of serum 1a to looped/cyclic peptides of protein N of SARS-CoV Urbani / Binding of serum 1b to looped/cyclic peptides of protein N of SARS-CoV Urbani / Binding of serum 2 to looped/cyclic peptides of protein N of SARS-CoV Urbani / Binding of serum 6 to looped/cyclic peptides of protein N of SARS-CoV Urbani / Binding of serum 37 to looped/cyclic peptides of protein N of SARS-CoV Urbani / Binding of serum 62 to looped/cyclic peptides of protein N of SARS-CoV Urbani / Binding of serum London to looped/cyclic peptides of protein N of SARS-CoV Urbani / Binding of serum SARS-green to looped/cyclic peptides of protein N of SARS-CoV Urbani: unit not given here"}, "[2]": {"tested_on": "control sera (pooled serum of ten healthy LUMC hospital workers; commercial negative donor pooled serum from the Dutch bloodbank)", "format": "binding, human", "parameters": "Binding of Control serum LUMC to linear peptides / Binding of Control serum Blood-bank to linear peptides / Binding of Control serum LUMC to looped peptides / Binding of Control Serum Blood-Bank to Looped peptides / Binding of Control serum LUMC to linear peptides of the protein M of SARS-CoV Urbani / Binding of Control serum Blood-bank to linear peptides of the protein M of SARS-CoV Urbani / Binding of Control serum LUMC to looped peptides of the protein M of SARS-CoV Urbani / Binding of Control Serum Blood-Bank to Looped peptides of the protein M of SARS-CoV Urbani: unit not given here"}, "[3]": {"tested_on": "rabbit serum obtained by immunizing a rabbit with the SARS-CoV strain Frankfurt 1", "format": "binding", "parameters": "Binding of a rabbit serum to linear peptides / Binding of a rabbit serum to looped peptides / Rabbit serum linear peptides / Rabbit serum looped peptides / Binding of a rabbit serum to linear peptides of protein N of SARS-CoV Urbani (Rabbit serum linear peptides) / Binding of a rabbit serum to looped/cyclic peptides of protein N of SARS-CoV Urbani (Rabbit serum looped peptides): unit not given here"}}, "data": [{"sequence": "RLFARTRSMWSFNPE", "values": [{"measurement": "Binding of serum 1a to linear peptides of protein M of SARS-CoV Urbani", "setting": "[1]", "result": 0.9}, {"measurement": "Binding of serum 1a to looped/cyclic peptides of protein M of SARS-CoV Urbani", "setting": "[1]", "result": 0.7}, {"measurement": "Binding of serum 1b to linear peptides of protein M of SARS-CoV Urbani", "setting": "[1]", "result": 0.9}, {"measurement": "Binding of serum 1b to looped/cyclic peptides of protein M of SARS-CoV Urbani", "setting": "[1]", "result": 0.8}, {"measurement": "Binding of serum 2 to linear peptides of protein M of SARS-CoV Urbani", "setting": "[1]", "result": 0.6}, {"measurement": "Binding of serum 2 to looped/cyclic peptides of protein M of SARS-CoV Urbani", "setting": "[1]", "result": 0.5}, {"measurement": "Binding of serum 6 to linear peptides of protein M of SARS-CoV Urbani", "setting": "[1]", "result": 0.4}, {"measurement": "Binding of serum 6 to looped/cyclic peptides of protein M of SARS-CoV Urbani", "setting": "[1]", "result": 0.8}, {"measurement": "Binding of serum 37 to linear peptides of protein M of SARS-CoV Urbani", "setting": "[1]", "result": 1.0}, {"measurement": "Binding of serum 37 to looped/cyclic peptides of protein M of SARS-CoV Urbani", "setting": "[1]", "result": 0.6}, {"measurement": "Binding of serum 62 to linear peptides of protein M of SARS-CoV Urbani", "setting": "[1]", "result": 0.9}, {"measurement": "Binding of serum 62 to looped/cyclic peptides of protein M of SARS-CoV Urbani", "setting": "[1]", "result": 0.6}, {"measurement": "Binding of serum London to linear peptides of protein M of SARS-CoV Urbani", "setting": "[1]", "result": 0.4}, {"measurement": "Binding of serum London to looped/cyclic peptides of protein M of SARS-CoV Urbani", "setting": "[1]", "result": 0.2}, {"measurement": "Binding of serum SARS-green to linear peptides of protein M of SARS-CoV Urbani", "setting": "[1]", "result": 0.5}, {"measurement": "Binding of serum SARS-green to looped/cyclic peptides of protein M of SARS-CoV Urbani", "setting": "[1]", "result": 0.4}, {"measurement": "Binding of serum SARS-yellow to linear peptides of protein M of SARS-CoV Urbani", "setting": "[1]", "result": 0.1}, {"measurement": "Binding of serum SARS-yellow to looped/cyclic peptides of protein M of SARS-CoV Urbani", "setting": "[1]", "result": 0.4}, {"measurement": "Binding of Control Serum Blood-Bank to Looped peptides of the protein M of SARS-CoV Urbani", "setting": "[2]", "result": 0.7}, {"measurement": "Binding of Control serum Blood-bank to linear peptides of the protein M of SARS-CoV Urbani", "setting": "[2]", "result": 0.8}, {"measurement": "Binding of Control serum LUMC to linear peptides of the protein M of SARS-CoV Urbani", "setting": "[2]", "result": 0.5}, {"measurement": "Binding of Control serum LUMC to looped peptides of the protein M of SARS-CoV Urbani", "setting": "[2]", "result": 0.5}, {"measurement": "Rabbit serum linear peptides", "setting": "[3]", "result": 0.4}, {"measurement": "Rabbit serum looped peptides", "setting": "[3]", "result": 0.0}]}, {"sequence": "RMCKYTQSTALQELL", "values": [{"measurement": "Binding of serum 1a to linear peptides of protein X2", "setting": "[1]", "result": 0.8}, {"measurement": "Binding of serum 1a to looped/cyclic peptides of protein X2 of SARS-CoV Urbani", "setting": "[1]", "result": 0.7}, {"measurement": "Binding of serum 1b to linear peptides of protein X2", "setting": "[1]", "result": 0.7}, {"measurement": "Binding of serum 1b to looped/cyclic peptides of protein X2 of SARS-CoV Urbani", "setting": "[1]", "result": 0.7}, {"measurement": "Binding of serum 2 to linear peptides of protein X2", "setting": "[1]", "result": 0.5}, {"measurement": "Binding of serum 2 to looped/cyclic peptides of protein X2 of SARS-CoV Urbani", "setting": "[1]", "result": 0.4}, {"measurement": "Binding of serum 6 to linear peptides of protein X2", "setting": "[1]", "result": 0.4}, {"measurement": "Binding of serum 6 to looped/cyclic peptides of protein X2 of SARS-CoV Urbani", "setting": "[1]", "result": 0.3}, {"measurement": "Binding of serum 37 to linear peptides of protein X2", "setting": "[1]", "result": 0.7}, {"measurement": "Binding of serum 37 to looped/cyclic peptides of protein X2 of SARS-CoV Urbani", "setting": "[1]", "result": 0.4}, {"measurement": "Binding of serum 62 to linear peptides of protein X2", "setting": "[1]", "result": 0.8}, {"measurement": "Binding of serum 62 to looped/cyclic peptides of protein X2 of SARS-CoV Urbani", "setting": "[1]", "result": 0.7}, {"measurement": "Binding of serum London to linear peptides of protein X2", "setting": "[1]", "result": 0.5}, {"measurement": "Binding of serum London to looped/cyclic peptides of protein X2 of SARS-CoV Urbani", "setting": "[1]", "result": 0.2}, {"measurement": "Binding of serum SARS-green to linear peptides of protein X2", "setting": "[1]", "result": 0.6}, {"measurement": "Binding of serum SARS-green to looped/cyclic peptides of protein X2 of SARS-CoV Urbani", "setting": "[1]", "result": 0.6}, {"measurement": "Binding of serum SARS-yellow to linear peptides of protein X2", "setting": "[1]", "result": 0.6}, {"measurement": "Binding of serum SARS-yellow to looped/cyclic peptides of protein X2 of SARS-CoV Urbani", "setting": "[1]", "result": 0.3}, {"measurement": "Binding of Control Serum Blood-Bank to Looped peptides", "setting": "[2]", "result": 0.7}, {"measurement": "Binding of Control serum Blood-bank to linear peptides", "setting": "[2]", "result": 0.8}, {"measurement": "Binding of Control serum LUMC to linear peptides", "setting": "[2]", "result": 0.7}, {"measurement": "Binding of Control serum LUMC to looped peptides", "setting": "[2]", "result": 0.6}, {"measurement": "Binding of a rabbit serum to linear peptides", "setting": "[3]", "result": 0.4}, {"measurement": "Binding of a rabbit serum to looped peptides", "setting": "[3]", "result": 0.4}]}, {"sequence": "RPLMESELVIGAVII", "values": [{"measurement": "Binding of serum 1a to linear peptides of protein M of SARS-CoV Urbani", "setting": "[1]", "result": 0.8}, {"measurement": "Binding of serum 1b to linear peptides of protein M of SARS-CoV Urbani", "setting": "[1]", "result": 0.6}, {"measurement": "Binding of serum 2 to linear peptides of protein M of SARS-CoV Urbani", "setting": "[1]", "result": 0.7}, {"measurement": "Binding of serum 6 to linear peptides of protein M of SARS-CoV Urbani", "setting": "[1]", "result": 0.3}, {"measurement": "Binding of serum 37 to linear peptides of protein M of SARS-CoV Urbani", "setting": "[1]", "result": 0.6}, {"measurement": "Binding of serum 62 to linear peptides of protein M of SARS-CoV Urbani", "setting": "[1]", "result": 0.9}, {"measurement": "Binding of serum London to linear peptides of protein M of SARS-CoV Urbani", "setting": "[1]", "result": 0.4}, {"measurement": "Binding of serum SARS-green to linear peptides of protein M of SARS-CoV Urbani", "setting": "[1]", "result": 0.3}, {"measurement": "Binding of serum SARS-yellow to linear peptides of protein M of SARS-CoV Urbani", "setting": "[1]", "result": 0.1}, {"measurement": "Recognition of the peptide by sera of SARS-CoV infected individuals, and form (linear, looped/cyclic) in which it is recognized", "setting": "[1]", "result": "recognized in looped/cyclic form"}, {"measurement": "Binding of Control Serum Blood-Bank to Looped peptides of the protein M of SARS-CoV Urbani", "setting": "[2]", "result": 0.8}, {"measurement": "Binding of Control serum Blood-bank to linear peptides of the protein M of SARS-CoV Urbani", "setting": "[2]", "result": 0.6}, {"measurement": "Binding of Control serum LUMC to linear peptides of the protein M of SARS-CoV Urbani", "setting": "[2]", "result": 0.5}, {"measurement": "Binding of Control serum LUMC to looped peptides of the protein M of SARS-CoV Urbani", "setting": "[2]", "result": 0.8}, {"measurement": "Rabbit serum linear peptides", "setting": "[3]", "result": 0.4}, {"measurement": "Rabbit serum looped peptides", "setting": "[3]", "result": 0.2}]}]}
